Source: patent US20230146455A1, “TREATMENT OF INFLAMMATORY DISEASES WITH PEPTIDES AND PHARMACEUTICAL COMPOSITIONS” (Yuyu Pharma, Inc., priority 2020, published 2023)
Values joined by “and” are separate entries in the source; they are usually repeats but may differ in a detail not shown here. Equal values may be shown once. Where a SMILES comes first, the peptide text is derived from it. [ ]: non-standard residue; d: D form. Hyp = O=C(O)[C@@H]1C[C@@H](O)CN1

System: TNF-alpha
Assay: Example 8 main study Luminex, LPS hPBMCs: TNF-alpha
Format: cell-based, human
Conditions: for TNF-alpha Concentration: individual replicates; for TNF-alpha Concentration (pg/ml), Mean: mean of replicates; for LPS-induced TNF-α (in words): at as low as 5 μM, LPS 5 ug/mL 24 hrs
Experimental: Human PBMCs were pretreated with YY-101, YDE-011, YDE-043 or reference compound; Xiidra® at various concentration (ranging from […] to 500 nM) for 2 h before stimulation. An equal volume of 0.5% DMSO was used as a vehicle control. Then, the cells were treated with LPS at 5 ug/ml, which was selected based on the pilot study. The supernatants from treated cells were harvested at 24 h and placed in a 96 well for Luminex cytokine & chemokine profiling using a Luminex 200 multiplex assay (Luminex; R&D system, USA).
The main study arm with triplicate wells per group in a 24-well plate: • 1. Blank • 2. PBMC: 0.5% DMSO • 3. PBMC+LPS (5 ug/ml) • 4. PBMC+YY-101 500 nM • 5. PBMC+YY-101 50 nM • 6. PBMC+YY-101 5 nM • 7. PBMC+YY-101 0.5 nM • 8. PBMC+LPS (5 ug/ml)+Xiidra® 500 nM • 9. PBMC+LPS (5 ug/ml)+Xiidra® 50 nM • 10. PBMC+LPS (5 ug/ml)+Xiidra® 5 nM • 11. PBMC+LPS (5 ug/ml)+Xiidra® 0.5 nM • 12. PBMC+LPS (5 ug/ml)+Xiidra® 0.05 nM • 13. PBMC+LPS (5 ug/ml)+Xiidra® 0.005 nM • 14. PBMC+LPS (5 ug/ml)+YY-101 500 nM • 15. PBMC+LPS (5 ug/ml)+YY-101 50 nM • 16. PBMC+LPS (5 ug/ml)+YY-101 5 nM • 17. PBMC+LPS (5 ug/ml)+YY-101 0.5 nM • 18. PBMC+LPS (5 ug/ml)+YY-101 0.05 nM • 19. PBMC+LPS (5 ug/ml)+YY-101 0.005 nM • 20. PBMC+LPS (5 ug/ml)+YDE-011 500 nM • 21. PBMC+LPS (5 ug/ml)+YDE-011 50 nM • 22. PBMC+LPS (5 ug/ml)+YDE-011 5 nM • 23. PBMC+LPS (5 ug/ml)+YDE-011 0.5 nM • 24. PBMC+LPS (5 ug/ml)+YDE-011 0.05 nM • 25. PBMC+LPS (5 ug/ml)+YDE-011 0.005 nM • 26. PBMC+LPS (5 ug/ml)+YDE-043 500 nM • 27. PBMC+LPS (5 ug/ml)+YDE-043 50 nM • 28. PBMC+LPS (5 ug/ml)+YDE-043 5 nM • 29. PBMC+LPS (5 ug/ml)+YDE-043 0.5 nM • 30. PBMC+LPS (5 ug/ml)+YDE-043 0.05 nM • 31. PBMC+LPS (5 ug/ml)+YDE-043 0.005 nM
Multiplex assay was used to measure 30 cytokines and chemokines. The 1:200 diluted cell supernatant and serial dilution of the standard were dispensed into a 96 well plate at 50 ul/well. Then, the pre-mixed cocktail of antibody-coated magnetic beads was dispensed at 50 ul/well and incubated at room temperature for 2 h in a horizontal orbital microplate shaker at 800±500 rpm. The beads were washed using a magnetic device to prevent loss. The biotin-antibody was dispensed in 50 ul of each well and incubated at room temperature for 1 h in a shaker at 800±500 rpm. After washing, streptavidin-PE was added at 50 ul/well and incubated at room temperature for 30 min in a shaker under the same conditions. Finally, after washing, wash buffer (100 ul/well) was added to the plate and incubated in a shaker for 2 min. The Luminex™ 200 setting were set according to the manufacturer's protocol. The data was calculated with a standard five-parameter logistic nonlinear regression analysis of the data (xPonent software 4.2, USA). Results were presented as concentration (ng/ml or pg/ml).

[1] = PBMC + LPS(5 ug/ml) + test article 0.005 nM
[2] = PBMC + LPS(5 ug/ml) + test article 0.05 nM
[3] = PBMC + LPS(5 ug/ml) + test article 0.5 nM
[4] = PBMC + LPS(5 ug/ml) + test article 5 nM
[5] = PBMC + LPS(5 ug/ml) + test article 50 nM
[6] = PBMC + LPS(5 ug/ml) + test article 500 nM

Row | SMILES | TNF-alpha Concentration [1] | TNF-alpha Concentration (pg/ml), Mean [1] [pg/mL] | TNF-alpha Concentration [2] | TNF-alpha Concentration (pg/ml), Mean [2] [pg/mL] | TNF-alpha Concentration [3] | TNF-alpha Concentration (pg/ml), Mean [3] [pg/mL] | TNF-alpha Concentration [4] | TNF-alpha Concentration (pg/ml), Mean [4] [pg/mL] | TNF-alpha Concentration [5] | TNF-alpha Concentration (pg/ml), Mean [5] [pg/mL] | TNF-alpha Concentration [6] | TNF-alpha Concentration (pg/ml), Mean [6] [pg/mL] | LPS-induced TNF-α (in words) | TNF-alpha Concentration (PBMC + test article 0.5 nM, no LPS, dilution 200) [pg/mL] | TNF-alpha Concentration (PBMC + test article 5 nM, no LPS, dilution 200) [pg/mL] | TNF-alpha Concentration (PBMC + test article 0.05 uM, no LPS, dilution 200) [pg/mL] | TNF-alpha Concentration (PBMC + test article 50 nM, no LPS, dilution 200) [pg/mL] | TNF-alpha Concentration (PBMC + test article 500 nM, no LPS, dilution 200) [pg/mL]
1 | CC(C)C[C@H](NC(=O)CNC(=O)[C@H](CC(C)C)NC(=O)[C@H](CCC(N)=O)NC(=O)CNC(=O)[C@@H]1C[C@@H](O)CN1)C(=O)N[C@@H](C)C(=O)NCC(=O)N1CCC[C@H]1C(=O)N[C@@H](CCCCN)C(=O)O [YDE-011] (H-[Hyp]GQLGLAGPK-OH) | 2116.1 pg/mL and 1988.8 pg/mL and 1861.0 pg/mL | 1988.6 | 1861.0 pg/ml and 2052.5 pg/ml (2×) | 1988.7 | 1344.6 pg/mL and 1988.8 pg/mL and 1797.0 pg/mL | 1710.1 | 749.3 pg/mL and 1409.7 pg/mL and 1668.5 pg/mL | 1275.8 | 1732.8 pg/mL and 2179.5 pg/mL and 442.1 pg/mL | 1451.5 | 2116.1 pg/mL and 647.8 pg/mL and 1246.7 pg/mL | 1336.9 | significantly reduced | – | – | – | – | –
2 | CC(C)C[C@H](NC(=O)[C@H](CCC(N)=O)NC(=O)CNC(=O)[C@@H]1C[C@@H](O)CN1)C(=O)NCC(=O)O [YDE-043] (H-[Hyp]GQLG-OH; N-terminus and C-terminus assumed) | 2052.5 pg/mL and 1797.0 pg/mL and 2306.2 pg/mL | 2051.9 | 1181.1 pg/mL and 1539.4 pg/mL and 1474.6 pg/mL | 1398.4 | 1764.9 pg/ml and 1409.7 pg/ml (2×) | 1528.1 | 1442.2 pg/mL and 2052.5 pg/mL and 1474.6 pg/mL | 1656.4 | 2020.6 pg/mL and 1797.0 pg/mL and 1474.6 pg/mL | 1764.1 | 1604.0 pg/mL and 1115.3 pg/mL and 1344.6 pg/mL | 1354.6 | significantly reduced | – | – | – | – | –
3 | CC(C)C[C@H](NC(=O)CNC(=O)[C@H](CC(=O)O)NC(=O)[C@H](CCC(N)=O)NC(=O)CNC(=O)[C@@H]1C[C@@H](O)CN1)C(=O)N[C@@H](C)C(=O)NCC(=O)N1CCC[C@H]1C(=O)N[C@@H](CCCCN)C(=O)O [YY-101] (H-[Hyp]GQDGLAGPK-OH; N-terminus and C-terminus assumed) | 2871.6 pg/mL and 2369.4 pg/mL and 2179.5 pg/mL | 2473.5 | 1797.0 pg/mL and 2621.2 pg/mL and 2242.9 pg/mL | 2220.4 | 2432.5 pg/mL and 2242.9 pg/mL and 2116.1 pg/mL | 2263.8 | 1988.8 pg/mL and 1925.0 pg/mL and 2242.9 pg/mL | 2052.2 | 1732.8 pg/mL and 1668.5 pg/mL and 1988.8 pg/mL | 1796.7 | 2179.5 pg/mL and 1988.8 pg/mL and 1797.0 pg/mL | 1988.4 | significantly reduced | <7.70 | <7.70 | <7.70 | <7.70 | <7.70
